Laboratory results taken from patent publication US20260199281A1, “NEW USE OF SIVELESTAT” (SHANGHAI HUILUN PHARMACEUTICAL CO., LTD., priority 2022, published 2026).

Columns and labels:
[1] = test system: carrageenan-induced pain models; assay: Determination of paw swelling volumes, carrageenan-induced pain models; assay type: in vivo, SD male rats; details: for Relative value of paw volumes: single dose, mean ± SD
Protocol: The experimental results were expressed as “mean±standard deviation”. The data of each group were statistically analyzed using the SPSS16.0 software package to compare whether there were statistical differences among the groups. P<0.05 indicated a statistical difference. A total of 72 SD male rats aged 6 to 8 weeks, with body weights of 188-208 g, were divided into 9 groups, with 8 rats in each group. […] Then 20 mL of normal saline was added to the glass bottle. The glass bottle was placed on a magnetic stirrer, and magnetic stirring was performed for 6 hours to obtain a 3% carrageenan solution. The carrageenan solution was stored at 4° C. • 1 Fasting: no • 2 Administration route: IP (intraperitoneal injection) • 3 Administration volume: 5 mL/kg • 4 Administration frequency: single-dose administration • 5 Time of administration: administered immediately after induction Sivelestat sodium: 26 mg of sivelestat sodium (corresponding to a dosage of 10 mg/kg) was weighed. Part of normal saline was added, and sonication and vortexing were performed. The pH was adjusted with […] until a homogeneous solution was obtained, and finally, the volume was made up to 13.0 mL. Experimental samples with other dosages (30 mg/kg, 100 mg/kg) could be prepared according to the specific dosages with reference to a similar method. Parecoxib: 24 mg of parecoxib (corresponding to a dosage of 10 mg/kg) was weighed. Part of normal saline was added, and sonication and vortexing were performed. The pH was adjusted with 10 mol NaOH until a homogeneous solution was obtained, and finally, the volume was made up to 12.0 mL. Experimental samples with other dosages (20 mg/kg) could be prepared according to the specific dosages with reference to a similar method. Samples of other COX-2 inhibitors were prepared with reference to the similar method described above. [table] To measure the paw swelling volumes (paw volumes) of experimental rats, the animals were gently held with one hand, and their hind paws were placed into the instrument used to measure the paw volumes with the other hand. The size of the paw volume was recorded. The measurement was repeated twice, and the mean value was taken as the paw volume of the animals.

[2] = test system: carrageenan-induced pain models; assay: Determination of mechanical pain thresholds (electronic Von Frey Hairs), carrageenan-induced pain models; assay type: in vivo, SD male rats; details: for Relative value of Von Frey Hairs: single dose, mean ± SD
Protocol: The experimental results were expressed as “mean±standard deviation”. The data of each group were statistically analyzed using the SPSS16.0 software package to compare whether there were statistical differences among the groups. P<0.05 indicated a statistical difference. A total of 72 SD male rats aged 6 to 8 weeks, with body weights of 188-208 g, were divided into 9 groups, with 8 rats in each group. […] Then 20 mL of normal saline was added to the glass bottle. The glass bottle was placed on a magnetic stirrer, and magnetic stirring was performed for 6 hours to obtain a 3% carrageenan solution. The carrageenan solution was stored at 4° C. • 1 Fasting: no • 2 Administration route: IP (intraperitoneal injection) • 3 Administration volume: 5 mL/kg • 4 Administration frequency: single-dose administration • 5 Time of administration: administered immediately after induction Sivelestat sodium: 26 mg of sivelestat sodium (corresponding to a dosage of 10 mg/kg) was weighed. Part of normal saline was added, and sonication and vortexing were performed. The pH was adjusted with […] until a homogeneous solution was obtained, and finally, the volume was made up to 13.0 mL. Experimental samples with other dosages (30 mg/kg, 100 mg/kg) could be prepared according to the specific dosages with reference to a similar method. Parecoxib: 24 mg of parecoxib (corresponding to a dosage of 10 mg/kg) was weighed. Part of normal saline was added, and sonication and vortexing were performed. The pH was adjusted with 10 mol NaOH until a homogeneous solution was obtained, and finally, the volume was made up to 12.0 mL. Experimental samples with other dosages (20 mg/kg) could be prepared according to the specific dosages with reference to a similar method. Samples of other COX-2 inhibitors were prepared with reference to the similar method described above. [table] The animals were placed in a specially designed multi-unit metal mesh cage for pain detection, and allowed to acclimate to the environment for 10 minutes. After the grooming and exploratory activities of the animals ceased and the animals adapted to the detection environment, the sole of the hind limb on the side where carrageenan was injected in the rats was stimulated with electronic Von Frey Hairs. […] The value of the Von Frey Hairs at this time, which was the threshold of the mechanical pain response, was recorded with “gram” as the unit of detection. The detection was repeated twice. Then the mean value was taken as the final detection index. The determination of mechanical pain thresholds was performed at a total of 5 time points, including before administration and 1 h, 3 h, 4 h and 6 h after administration.

[3] = test system: carrageenan-induced pain models; assay: Determination of thermal radiation (thermal pain threshold), carrageenan-induced pain models; assay type: in vivo, SD male rats; details: for Relative value of thermal radiation: single dose, mean ± SD
Protocol: The experimental results were expressed as “mean±standard deviation”. The data of each group were statistically analyzed using the SPSS16.0 software package to compare whether there were statistical differences among the groups. P<0.05 indicated a statistical difference. A total of 72 SD male rats aged 6 to 8 weeks, with body weights of 188-208 g, were divided into 9 groups, with 8 rats in each group. […] Then 20 mL of normal saline was added to the glass bottle. The glass bottle was placed on a magnetic stirrer, and magnetic stirring was performed for 6 hours to obtain a 3% carrageenan solution. The carrageenan solution was stored at 4° C. • 1 Fasting: no • 2 Administration route: IP (intraperitoneal injection) • 3 Administration volume: 5 mL/kg • 4 Administration frequency: single-dose administration • 5 Time of administration: administered immediately after induction Sivelestat sodium: 26 mg of sivelestat sodium (corresponding to a dosage of 10 mg/kg) was weighed. Part of normal saline was added, and sonication and vortexing were performed. The pH was adjusted with […] until a homogeneous solution was obtained, and finally, the volume was made up to 13.0 mL. Experimental samples with other dosages (30 mg/kg, 100 mg/kg) could be prepared according to the specific dosages with reference to a similar method. Parecoxib: 24 mg of parecoxib (corresponding to a dosage of 10 mg/kg) was weighed. Part of normal saline was added, and sonication and vortexing were performed. The pH was adjusted with 10 mol NaOH until a homogeneous solution was obtained, and finally, the volume was made up to 12.0 mL. Experimental samples with other dosages (20 mg/kg) could be prepared according to the specific dosages with reference to a similar method. Samples of other COX-2 inhibitors were prepared with reference to the similar method described above. [table] The animals were placed in a transparent plastic box, and could be allowed to acclimatize for 10 minutes before the test. The middle of the plantar surface of the hind limb on the side where carrageenan was injected in the rats was irradiated with a radiant heat light source to determine their thermal pain threshold. The detection was repeated twice. Then the mean value was taken as the final detection index.

[4] = test system: rat models of post-operative pain; assay: Mechanical hyperalgesia test in rat models of post-operative pain; assay type: in vivo, Male SD rats; details: used alone, i.p., single dose
Protocol: Male SD rats were acclimated to the test environment for 3 days before modeling. On the day of modeling, the animals were anesthetized with Zoletil 50+xylazine hydrochloride (20 mg/kg+8 mg/kg, intraperitoneal injection). A longitudinal incision of approximately 1 cm in length was made towards the toes at a position 0.7-0.8 cm from the heel of the left hind paw of the animals. After the skin was incised, the flexor digitorum brevis muscle was lifted, and a longitudinal blunt injury was inflicted. On the first day after the operation, the model animals were randomly divided into 7 groups according to the baseline values of mechanical hyperalgesia.
Two-way analysis of variance with the Bonferroni's multiple comparison test was performed.

[5] = 10 mg/kg intraperitoneal, 1 hour after administration
[6] = 10 mg/kg intraperitoneal, 3 hours after administration
[7] = 10 mg/kg intraperitoneal, 4 hours after administration
[8] = 10 mg/kg intraperitoneal, 6 hours after administration
[9] = 20 mg/kg intraperitoneal, 1 hour after administration
[10] = 20 mg/kg intraperitoneal, 3 hours after administration
[11] = 20 mg/kg intraperitoneal, 4 hours after administration
[12] = 20 mg/kg intraperitoneal, 6 hours after administration
[13] = 30 mg/kg intraperitoneal, 1 hour after administration
[14] = 30 mg/kg intraperitoneal, 3 hours after administration
[15] = 30 mg/kg intraperitoneal, 4 hours after administration
[16] = 30 mg/kg intraperitoneal, 6 hours after administration
[17] = 100 mg/kg intraperitoneal, 1 hour after administration
[18] = 100 mg/kg intraperitoneal, 3 hours after administration
[19] = 100 mg/kg intraperitoneal, 4 hours after administration
[20] = 100 mg/kg intraperitoneal, 6 hours after administration
[21] = used alone at 10, 30 and 100 mg/kg

SMILES: CCC(=O)NS(=O)(=O)c1ccc(-c2c(-c3ccccc3)noc2C)cc1 [parecoxib]
- Relative value of paw volumes [1, 5]: 4.34 ± 25.02%
- Relative value of paw volumes [1, 6]: 24.76 ± 11.32 %
- Relative value of paw volumes [1, 7]: 22.58 ± 18.82 %
- Relative value of paw volumes [1, 8]: 20.81 ± 12.66 %
- Relative value of paw volumes [1, 9]: 18.58 ± 45.76%
- Relative value of paw volumes [1, 10]: 31.45 ± 25.56 %
- Relative value of paw volumes [1, 11]: 19.47 ± 23.41%
- Relative value of paw volumes [1, 12]: 23.95 ± 15.74 %
- Relative value of Von Frey Hairs [2, 5]: 13.6 ± 5.9 %
- Relative value of Von Frey Hairs [2, 6]: 16.4 ± 4.2 %
- Relative value of Von Frey Hairs [2, 7]: 15.1 ± 4.5 %
- Relative value of Von Frey Hairs [2, 8]: 11.9 ± 5.8 %
- Relative value of Von Frey Hairs [2, 9]: 13.7 ± 7.5 %
- Relative value of Von Frey Hairs [2, 10]: 17.3 ± 7.9 %
- Relative value of Von Frey Hairs [2, 11]: 16.2 ± 4.2 %
- Relative value of Von Frey Hairs [2, 12]: 12.4 ± 3.9 %
- Relative value of thermal radiation [3, 5]: 34.6 ± 18.9 %
- Relative value of thermal radiation [3, 6]: 16.6 ± 16.7%
- Relative value of thermal radiation [3, 7]: 22.7 ± 13.8 %
- Relative value of thermal radiation [3, 8]: 14.6 ± 11.0 %
- Relative value of thermal radiation [3, 9]: 45.8 ± 25.1 %
- Relative value of thermal radiation [3, 10]: 58.5 ± 22.3 %
- Relative value of thermal radiation [3, 11]: 37.4 ± 26.7%
- Relative value of thermal radiation [3, 12]: 38.0 ± 11.0 %

SMILES: CC(C)(C)C(=O)Oc1ccc(S(=O)(=O)Nc2ccccc2C(=O)NCC(=O)O)cc1 [sivelestat sodium]
- effect on post-operative pain (mechanical hyperalgesia) [4]: significant effect
- Relative value of paw volumes [1, 5]: 4.86 ± 19.10%
- Relative value of paw volumes [1, 6]: 8.96 ± 13.90%
- Relative value of paw volumes [1, 7]: 1.67 ± 15.59%
- Relative value of paw volumes [1, 8]: 3.70 ± 14.04%
- Relative value of paw volumes [1, 13]: 20.49 ± 41.12%
- Relative value of paw volumes [1, 14]: 17.37 ± 17.14%
- Relative value of paw volumes [1, 15]: 14.09 ± 18.97%
- Relative value of paw volumes [1, 16]: 14.94 ± 18.68%
- anti-inflammatory effect (paw volumes) ([1]; 100 mg/kg alone, 6 h after administration): significant anti-inflammatory effect
- Relative value of paw volumes [1, 17]: 3.99 ± 24.23%
- Relative value of paw volumes [1, 18]: 18.24 ± 11.26%
- Relative value of paw volumes [1, 19]: 13.64 ± 15.23%
- Relative value of paw volumes [1, 20]: 19.27 ± 11.40 %
- anti-inflammatory effect (paw volumes) compared with the model group [1, 21]: a certain anti-inflammatory effect
- Relative value of Von Frey Hairs [2, 5]: 17.1 ± 5.5 %
- Relative value of Von Frey Hairs [2, 6]: 15.3 ± 5.9 %
- Relative value of Von Frey Hairs [2, 7]: 11.5 ± 6.1 %
- Relative value of Von Frey Hairs [2, 8]: 4.8 ± 4.4 %
- Relative value of Von Frey Hairs [2, 13]: 18.9 ± 5.9 %
- Relative value of Von Frey Hairs [2, 14]: 15.6 ± 7.5 %
- Relative value of Von Frey Hairs [2, 15]: 15.2 ± 4.2 %
- Relative value of Von Frey Hairs [2, 16]: 4.1 ± 5.0%
- Relative value of Von Frey Hairs [2, 17]: 20.4 ± 3.9 %
- Relative value of Von Frey Hairs [2, 18]: 18.1 ± 3.7 %
- Relative value of Von Frey Hairs [2, 19]: 15.5 ± 4.3 %
- Relative value of Von Frey Hairs [2, 20]: 7.9 ± 4.5 %
- analgesic efficacy in the mechanical pain threshold test [2, 21]: significant analgesic efficacy
- Relative value of thermal radiation [3, 5]: 10.3 ± 28.7%
- Relative value of thermal radiation [3, 6]: 19.8 ± 14.0 %
- Relative value of thermal radiation [3, 7]: 3.7 ± 5.1%
- Relative value of thermal radiation [3, 8]: 4.2 ± 6.2%
- Relative value of thermal radiation [3, 13]: 20.9 ± 39.4%
- Relative value of thermal radiation [3, 14]: 18.0 ± 21.4%
- Relative value of thermal radiation [3, 15]: 4.0 ± 9.3%
- Relative value of thermal radiation [3, 16]: 9.2 ± 4.4%
- Relative value of thermal radiation [3, 17]: 24.0 ± 41.2%
- Relative value of thermal radiation [3, 18]: 22.3 ± 18.0 %
- Relative value of thermal radiation [3, 19]: 13.1 ± 11.0%
- Relative value of thermal radiation [3, 20]: 5.4 ± 8.1%
- analgesic efficacy in the thermal pain threshold test ([3]; used alone at 10 mg/kg and 100 mg/kg, 3 hours after administration): significant analgesic efficacy
